Peptide text beside a SMILES is read from it. * marks the point of attachment. Cbz = O=C(OCc1ccccc1)*
Key:
[1] = test system: BR-biosynthetic, BR signaling and BR-induced genes; test: Real time PCR of BR pathway genes; format: in vivo, Arabidopsis thaliana; details: 30 μM, 2 hours
Protocol: FIG. 7: Q-PCR analysis of genes involved in BR biosynthesis. WT Arabidopsis plants were treated with abrasin (indicated as I5) for 2 hours at a concentration of 30 μM and/or with CHX at a concentration of 30 μM and RNA was extracted from whole plants.
(§1) FIG. 8: A: Western Blot analysis of the BES1 protein in 35S:BES1:GFP plants treated with BL and abrasin (indicated as I5 throughout the figure) (A); MG132 with BL or abrasin (B); a time course with abrasin (C) and a concentration gradient with abrasin (D). B: Abrasin and BL induce similar transcriptional regulation of the BR pathway.
RNA was extracted with the RNeasy kit. Poly(dT) cDNA was prepared from […] of total RNA with Superscript III reverse transcriptase (Invitrogen) and quantified on an LightCycler 480 apparatus (Roche) with the SYBR Green I Master kit (Roche) according to the manufacturer's instructions. Target quantifications were performed with specific primer pairs designed with the Beacon Designer 4.0 (Premier Biosoft International). All PCRs were performed in triplicate.
The primers used to quantify gene expression levels were for BAS 1: 5′-[…]-3′ and 5′-[…]-3′; BR6Ox1: 5′-TGGCCAATCTTTGGCGAA-3′ and 5′-[…]-3′; BR6Ox2: 5′-[…]-3′ and 5′-[…]-3′; BRI1: 5′-[…]-3′ and 5′-[…]-3′; CPD: 5′-[…]-3′ and 5′-[…]-3′; DWF4: 5′-[…]-3′ and 5′-[…]-3′ ROT3: 5′-ATTGGCGCGTTCCTCAGAT-3′ and 5′-[…]-3′; BES1: 5′-[…]-3′ and 5′-[…]-3′; BIN2: 5′-[…]-3′ and 5′-[…]-3′; BSU 1: 5′-[…]-3′ and 5′-[…]-3′; BZR1: 5′-[…]-3′ and 5′-[…]-3′; CDKA1; 1: 5′-[…]-3′ and 5′-[…]-3′; EEF1α: 5′-[…]-3′ and 5′-[…]-3′; BKI1: 5′-GCTCCGGCGTCGATGA-3′ and 5′-[…]-3′.

[2] = test system: BES1 protein in 35S:BES1:GFP plants; test: Western blot analysis of BES1 phosphorylation state; format: in vivo, Arabidopsis thaliana
Protocol: as §1
For protein extraction, six-day-old seedlings were grown under standard conditions as described earlier on solid medium. Plants were next soaked in liquid MS-medium supplemented with the indicated compounds (concentrations and time periods as indicated in figures). Subsequently, plants were frozen in liquid nitrogen, ground and homogenized in ice-cold homogenization buffer (25 mM Tris-HCl (pH 8), 5 mM EDTA, 1 mM β-Mercapto-ethanol, 15 mM MgCl—2, 85 mM NaCl, 0.1% Tween 20, 1 protease inhibitor tablet/50 ml, Complete (Roche diagnostics, Belgium)). The homogenate was centrifuged twice (5 min, 14.000 rpm, 4° C.) in an Eppendorf Centrifuge 5417. Loading buffer was added, the samples were heated for 10 min at 95° C. and centrifuged. The samples were separated on a 12% acrylamide gel or a 4-20% gradient pre-cast gel (Bio-Rad) and blotted on nitrocellulose membranes (Hybond-C super, GE-Biosciences, UK) in 190 mM glycine and 25 mM Tris-Hcl using a mini-blotting system (Bio-Rad, USA) for 1 h. Membranes were blocked overnight at 4° C. in phosphate buffer with 0.1% Tween 20 and 5% skim milk (BD Difco, USA). For immunodetection, anti-BES1 antibodies at 1:2000 dilution and anti-GFP antibodies at 1:1000 dilution were used as primary antibody. As secondary antibody, anti-rat and anti-rabbit were used at 1:10.000 dilution. The proteins were detected by chemiluminescence (Perkin-Elmer, USA).

[3] = test system: Arabidopsis thaliana seedlings; test: Lateral root formation / root elongation of seedlings on agar plates; format: in vivo; details: structural variants of abrasin
Protocol: FIG. 3: (A) Phenotypic characterization. WT plants were grown under standard conditions on agar plates. […] Left panel: control plant. Middle panel: abrasin treated plant. Right panel: BL treated plant. (B) Dose response measurements of abrasin using lateral root formation as an indicator of brassinosteroid like activity. Error bars represent standard error of the mean. […] Osram) at 22° C. Three days after germination compounds were added to the 96-well plates at a final concentration of 50 μM. Plants were screened six days after germination for brassinosteroid-related phenotypes. For further phenotypical analysis, all plants were grown on vertically oriented square plates (Greiner Labortechnik, Austria) with solid medium derived from standard Murashige and Skoog medium under the same conditions. For the hypocotyl-elongation assay, plants were grown in the dark at 22° C. under the same conditions.

`C[C@@H]1C[C@@H]([C@H](O)CC2CC(=O)NC(=O)C2)C(=O)[C@@H](C)C1` [CHX, cycloheximide, reference compound] was tested, and the “expression of genes downstream of the BRI1 receptor” value [1] was “able to induce some of these genes”.
`CC(C)C[C@@H](C=O)NC(=O)[C@H](CC(C)C)NC(=O)[C@H](CC(C)C)NC(=O)OCc1ccccc1` [MG132, Z-Leu-Leu-Leu-CHO, reference compound] (Cbz-Leu-Leu-Leu-aldehyde) was tested, and the “total amount of BES1 protein” value ([2]; MG132 treatment) was “an increase in the total amount of BES1” and the BES1 phosphorylation state ([2]; addition of BL or MG132) was “no shift in the ratio between the phosphorylated and the dephosphorylated form is observed”.
For `O=C(O)CCC(=O)Nc1ccc(F)cn1` [fluoro derivative, 4-[(5-fluoro-2-pyridinyl)amino]-4-oxobutanoic acid], the “effect on lateral root formation as indication of brassinosteroid like activity” value [3] was “highest activity”.
